According to US11191811B2, “Osteocalcin as a treatment for frailty associated with aging” (THE TRUSTEES OF COLUMBIA UNIVERSITY IN THE CITY OF NEW YORK, priority 2014, dated 2021):

Legend:
[1] = system: wild type mice; assay: Glycemia during subcutaneous infusion; type: in vivo, mouse; conditions: 0.3, 1 and 3 ng/hour subcutaneously for 28 days, versus PBS
Protocol: FIG. 1. Osteocalcin subcutaneous infusion decreases glycemia in wild-type mice. Indicated doses of recombinant osteocalcin or PBS were infused subcutaneously for 28 days in wild-type mice. Blood glucose was measured at indicated days.
An in vivo experiment was conducted in which the effect of undercarboxylated osteocalcin on glycemia was monitored. Wild type mice were infused with 3 different amounts of mouse recombinant undercarboxylated osteocalcin or placebo (PBS) subcutaneously for 28 days (0.3, 1 and 3 ng/hour). Compared to the control animal infused with placebo, all three doses of undercarboxylated osteocalcin decreased glycemia in vivo over the 28 day period (FIG. 1).

[2] = system: aged WT mice; assay: Novel Object Recognition test in aged WT mice with ICV infusion; type: in vivo, mouse
Protocol: FIG. 15. Osteocalcin improves hippocampal function in aged wild-type (WT) mice. Constant and novel object investigation in the Novel Object Recognition test in 17 month old mice treated for 1 month with vehicle or 10 ng/hr recombinant uncarboxylated osteocalcin.
ICV pumps delivering (10 ng/hr) recombinant uncarboxylated full-length mouse osteocalcin were implanted in 16 month old WT mice. After an infusion period of one month, the mice were subjected to a modified version of the Novel Object Recognition test, to assay memory and hippocampal function. Briefly, mice were given five 5 minute exposures, with 3 minute resting intervals between exposures, to a novel arena containing two objects. During exposures 1-4, mice were habituated to these two objects, which elicited equal amounts of exploration. In the fifth exposure, one of the objects was replaced with a novel object.

[3] = system: wild type mice; assay: Insulin sensitivity test after subcutaneous infusion; type: in vivo, mouse; conditions: 0.3 or 3 ng/hour subcutaneously for 18 days, 0-120 minutes after insulin injection
Protocol: FIG. 3. Osteocalcin subcutaneous infusion increases insulin sensitivity in wild-type mice. Wild-type mice were infused subcutaneously with indicated doses of recombinant osteocalcin or PBS for 18 days before receiving a single injection of insulin. Blood glucose was measured thereafter at indicated times.
The effect of uncarboxylated osteocalcin on insulin sensitivity was also examined. Wild type mice were infused subcutaneously with 0.3 or 3 ng/hour doses of recombinant osteocalcin or PBS for 18 days before receiving a single injection of insulin. Blood glucose was measured thereafter at the indicated times from 0-120 minutes after injection.

[4] = system: Gprc6aMck−/− mice; assay: Endurance exercise on treadmill until exhaustion; type: in vivo, mouse; conditions: Gprc6aMck−/− mice treated with Ocn
Protocol: (§1) First, whether a single intraperitoneal injection of uncarboxylated mouse osteocalcin (osteocalcin) (100 ng/g of body weight) immediately before exercise would improve the exercise capacity of 3 month-old WT mice was tested.
For exercise studies, all mice were trained before the tests to run on a treadmill (Harvard apparatus) for three days (10 minutes/day). The day of the test, mice were acclimated to the treadmill for 5 minutes followed by 10 minutes running at a constant speed of 17 cm/s, then a gradual increase in the speed up to 30 cm/s. Next, mice were run until exhaustion as defined by the number of times a mouse fell off to the electric grid during one minute (>15). Measurements of muscle strength were carried out using a grip strength meter (Columbus instruments). Values are expressed as the average of five single measurements, taken one minute apart from each other. For all biochemical and metabolic analyses performed, blood/tissues were collected and processed either at rest or at the end of a 40 min run (30 cm/s).

[5] = Circulating osteocalcin and insulin levels after osteocalcin delivery (ELISA); type: in vivo, mouse
Protocol: as §1
To determine if osteocalcin has the same ability in older mice, 12 and 15 month-old mice that have low circulating osteocalcin levels were injected prior to running with 500 ng/g of body weight of osteocalcin in order to raise their circulating levels substantially. […] This was due to an increase in the phosphorylation of Akt, AMPK and HSL, as well as in glucose uptake, that occurred to a greater extent in oxidative muscles that express Gprc6a at the highest level, than in glycolytic muscles (FIG. 31C-F). Whether chronic delivery of osteocalcin through mini-pumps (90 ng/hour) for 28 days would increase muscle function in 9 month old mice that have the lowest circulating osteocalcin levels was also tested. […] This improved ability to perform exercise was caused in part by an increase in the expression in muscle of the fatty acid transporter Fatp1 and an activation of the Akt pathway (FIG. 31H-).
Serum osteocalcin, PINP, CTX, and insulin levels were measured using ELISA assays. Blood glucose level was measured using an Accu-Check glucometer. Urine 3-MHT was measured as previously described (Aranibar et al., 2011, Anal. Biochem. 410:84-91). […]

[6] = system: wild-type; assay: Glycolysis, extracellular acidification rate (ECAR); type: cell-based, mouse; conditions: ECAR (FIG. 20); in muscle
Text: FIG. 20. Osteocalcin favors glycolysis. (a) Effect of increasing amounts of uncarboxylated osteocalcin on change in extracellular acidification rate (ECAR) in wild-type mice. The effect of insulin is also shown for comparison. (B) Effect of uncarboxylated osteocalcin on ECAR of wild-type and Gprc6a^−/− mice. (C) L-lactate production in wild-type and Gprc6a^−/− mice.

[7] = system: mice; assay: Mouse asthma model (albumin sensitisation, nebulized albumin); type: in vivo; conditions: osteocalcin given by nebulization together with the nebulized albumin
Text: In a mouse asthma model that involves intraperitoneal injection of albumin (to sensitize the mice) followed a week later by nebulized administration of albumin to the lungs of the mice, osteocalcin given by nebulization together with the nebulized albumin prevented the bronchoconstriction that would have otherwise been observed.

In the case of “uncarboxylated osteocalcin: Recombinant uncarboxylated mouse osteocalcin, bacterially produced, purified on glutathione beads and cleaved from the GST subunit by thrombin (YLGASVPSPDPLEPTREQCELNPACDELSDQYGLKTAYKRIYGITI)”, the glycemia [1] was “decreases”, the glycemia ([1]; listed as undercarboxylated osteocalcin) was “decreased” and the “time exploring the novel object” value ([2]; 10 ng/hr ICV for one month, 16 month old WT mice, versus vehicle alone) was “less time”. For the same substance, the “discrimination between the novel and constant objects” value ([2]; 10 ng/hr ICV for one month, aged mice) was “able to discriminate”, the hippocampal function ([2]; aged WT mice (FIG. 15 title)) was “improves” and the insulin sensitivity [3] was “increased”. The insulin sensitivity ([3]; listed as Osteocalcin) was “increases”, the muscle function [4] was “did not improve” and the circulating osteocalcin levels ([5]; 3 month-old WT mice, single i.p. injection 100 ng/g) was “increased”. For the same substance, the circulating osteocalcin levels ([5]; mini-pumps 90 ng/hour for 28 days, 9 month old mice) was “increased”, the glycolysis [6] was “favors” and the bronchoconstriction [7] was “prevented”.
